Patent US8343961B2, “Substituted heterocyclic compounds” (ArQule, Inc., priority 2009, dated 2013)

Legend:
EphA8 = biological target: T1, EphA8 (Homo sapiens, UniProt P29322); test: EphA8 Kinase Activity Assay; type: biochemical; settings: read-out: EphA8, % INH, at 30 uM
T1 sequence (P29322 28-1005): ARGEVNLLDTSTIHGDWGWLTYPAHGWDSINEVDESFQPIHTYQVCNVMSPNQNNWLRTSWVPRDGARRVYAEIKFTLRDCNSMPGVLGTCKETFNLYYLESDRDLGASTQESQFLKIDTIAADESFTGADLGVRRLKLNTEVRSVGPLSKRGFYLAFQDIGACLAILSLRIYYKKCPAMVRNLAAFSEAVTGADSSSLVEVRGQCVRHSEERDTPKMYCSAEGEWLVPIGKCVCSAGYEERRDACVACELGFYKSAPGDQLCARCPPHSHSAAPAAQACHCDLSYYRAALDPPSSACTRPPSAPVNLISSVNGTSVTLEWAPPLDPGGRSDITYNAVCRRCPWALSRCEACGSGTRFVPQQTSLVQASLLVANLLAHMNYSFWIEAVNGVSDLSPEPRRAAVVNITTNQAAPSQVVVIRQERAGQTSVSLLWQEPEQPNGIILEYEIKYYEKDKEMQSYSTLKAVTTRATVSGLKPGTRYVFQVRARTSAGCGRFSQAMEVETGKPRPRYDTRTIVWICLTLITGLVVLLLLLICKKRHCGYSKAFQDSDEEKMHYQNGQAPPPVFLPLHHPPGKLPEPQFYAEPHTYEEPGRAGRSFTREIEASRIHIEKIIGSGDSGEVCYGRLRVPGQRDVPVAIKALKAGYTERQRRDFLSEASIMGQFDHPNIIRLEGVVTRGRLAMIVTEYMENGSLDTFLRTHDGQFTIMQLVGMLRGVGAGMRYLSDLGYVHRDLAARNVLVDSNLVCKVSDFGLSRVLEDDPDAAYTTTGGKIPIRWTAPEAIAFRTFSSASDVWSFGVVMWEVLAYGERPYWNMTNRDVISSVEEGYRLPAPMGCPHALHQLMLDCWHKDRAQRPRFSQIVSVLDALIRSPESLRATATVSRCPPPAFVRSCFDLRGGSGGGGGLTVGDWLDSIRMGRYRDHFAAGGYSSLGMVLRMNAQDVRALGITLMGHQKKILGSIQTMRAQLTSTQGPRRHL
Experimental: (§1) Nunc Maxisorb plates are coated with streptavidin by overnight incubation with 100 μL per well of 1 μg/ml Streptavidin in DPBS. Prior to the start of the experiment, the plates are washed with TBST (3×200 μL) and blocked for at least 1 hour by adding 150 μL of 5% BSA/TBST. The plates are washed with TBST (3×200 μL/well) and left dry immediately before the capture step.
The test articles and control (Staurosporine) are prepared using the following assay buffer @ 3× desired final concentration (50 mM Tris-HCl, 0.02 mg/ml BSA, 10 mM MgCl2, 0.1 mM Na3VO4, 1 mM EGTA, 12.5 μM ATP, 0.01% NP-40, 1 mM DTT in 10% glycerol/water). In a reaction plate are added rapidly 20 μl test article (or control) and 20 μl EphA8 (0.12 ng/μl final concentration). The plate is incubated for 15 minutes. To the reaction plate is added 20 μl of Pyk-2 (0.75 ng/μl final concentration). The plate is incubated at room temperature for one hour. From the reaction plate, 50 μl is transferred to the streptavidin coated plate. The capture plate is incubated at room temperature for 30 minutes, then washed 6× with TBST. To the capture plate is added 100 μL/well of Cell Signaling anti-phospho tyrosine at a dilution of 1:3000 in 2% BSA/TBST. The plate is incubated for one hour at room temperature then washed 6× with TBST. To the capture plate is added 100 μL/well of Alkaline Phosphatase Tagged Goat anti Mouse Antibody at a dilution of 1:4000 in 2% BSA/TBST. The plate is incubated for one hour at room temperature then washed 6× with TBST. The fluorescent readout is initiated by the addition of 100 μl/well of Attophos reagent (6 mg/10 mL). The reading is done on the Perkin Elmer Envision system.

RET kinase = RET kinase (Homo sapiens, UniProt P07949); test: RET Kinase Activity Assay; type: biochemical; settings: read-out: Ret, % INH, at 30 uM
RET kinase, sequence (P07949 29-1114): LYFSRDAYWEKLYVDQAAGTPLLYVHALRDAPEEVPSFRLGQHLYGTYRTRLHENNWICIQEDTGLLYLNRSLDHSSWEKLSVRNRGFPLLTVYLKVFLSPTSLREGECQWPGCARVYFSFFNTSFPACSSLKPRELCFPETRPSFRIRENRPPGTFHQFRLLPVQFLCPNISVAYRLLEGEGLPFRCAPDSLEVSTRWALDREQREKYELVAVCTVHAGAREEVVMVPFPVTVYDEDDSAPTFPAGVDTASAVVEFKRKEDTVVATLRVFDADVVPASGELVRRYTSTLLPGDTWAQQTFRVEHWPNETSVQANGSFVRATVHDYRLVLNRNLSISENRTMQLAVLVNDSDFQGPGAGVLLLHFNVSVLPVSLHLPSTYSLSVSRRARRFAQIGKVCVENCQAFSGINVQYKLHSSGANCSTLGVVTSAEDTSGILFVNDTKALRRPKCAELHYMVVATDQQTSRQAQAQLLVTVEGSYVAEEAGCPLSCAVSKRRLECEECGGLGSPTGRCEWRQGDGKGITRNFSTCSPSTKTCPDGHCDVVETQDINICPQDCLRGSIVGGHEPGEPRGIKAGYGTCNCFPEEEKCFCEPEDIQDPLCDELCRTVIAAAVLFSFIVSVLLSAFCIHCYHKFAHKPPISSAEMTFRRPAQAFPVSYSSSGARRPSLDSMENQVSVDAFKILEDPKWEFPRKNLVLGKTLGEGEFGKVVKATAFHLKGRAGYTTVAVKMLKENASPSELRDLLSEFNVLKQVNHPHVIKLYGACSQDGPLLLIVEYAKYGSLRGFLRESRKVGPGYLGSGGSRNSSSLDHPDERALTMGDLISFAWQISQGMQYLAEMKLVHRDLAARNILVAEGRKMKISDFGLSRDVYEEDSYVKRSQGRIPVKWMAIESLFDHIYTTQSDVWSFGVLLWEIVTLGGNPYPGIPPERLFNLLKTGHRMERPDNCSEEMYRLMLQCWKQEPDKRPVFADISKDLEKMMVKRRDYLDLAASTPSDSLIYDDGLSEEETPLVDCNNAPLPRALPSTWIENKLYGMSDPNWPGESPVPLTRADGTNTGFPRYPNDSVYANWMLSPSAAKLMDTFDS
Experimental: as §1, with “The disclosed compounds were assayed for their ability to inhibit the activity of RET kinase. Nunc” for “Nunc”, “Maxwasorb” for “Maxisorb”, “were” for “are”, “μg/mL” for “μg/ml”, “[…])” for “μL/well)”
The test articles and controls (Staurosporine and Sutent) were prepared using the following assay buffer @ 3× desired final concentration (50 mM […], 0.02 mg/mL BSA, 10 mM MgCl2, 0.1 mM Na3VO4, 1 mM EGTA, 75 μM ATP0.01% NP-40, 2 mM DTT in 10% glycerol/water). In a reaction plate, were added rapidly 20 μL test article (or control) and 20 μL RET (0.25 ng/4 final concentration). The plate was incubated for 15 minutes. To the reaction plate was added 20 μL of Pyk-2 (0.25 ng/4 final concentration). The plate was incubated at room temperature for one hour.
From the reaction plate, 50 μL was transferred to the streptavidin coated plate. The capture plate was incubated at room temperature for 30 minutes then washed 6× with TBST. To the capture plate was added 100 μL/well of Cell Signaling anti-phospho tyrosine at a dilution of 1:3000 in 2% BSA/TBST. The plate was incubated for one hour at room temperature then washed 6× with TBST. To the capture plate was added 100 μL/well of Alkaline Phosphatase Tagged Goat anti Mouse Antibody at a dilution of 1:4000 in 2% BSA/TBST. The plate was incubated for one hour at room temperature then washed 6× with TBST. The fluorescent readout was initiated by the addition of 100 μL/well of Attophos reagent (6 mg/10 mL). The reading was done on the Perkin Elmer Envision system.

| Compound | inhibition at 30 µM (EphA8) | inhibition at 30 µM (RET kinase) |
| --- | --- | --- |
| COc1cc2c(cc1OC)C(c1cccc(Cl)c1F)N(c1nc(N)nc3[nH]cnc13)CC2 (stereo not shown) [Compound 49, 6-[1-(3-chloro-2-fluorophenyl)-6,7-dimethoxy-3,4-dihydroisoquinolin-2(1H)-yl]-9H-purin-2-amine] | < 50% | < 50% |
| COc1cc2c(cc1OC)C(CCc1ccccc1)N(c1nc(N)nc3[nH]ncc13)CC2 (stereo not shown) [Compound 51, 4-[6,7-dimethoxy-1-(2-phenylethyl)-3,4-dihydroisoquinolin-2(1H)-yl]-1H-pyrazolo[3,4-d]pyrimidin-6-amine] | < 50% | 50 to 79% |
| COc1cccc(CN2CCN(c3nc(N)nc4[nH]cnc34)Cc3ccccc32)c1 [Compound 2, 6-[1-(3-methoxybenzyl)-1,2,3,5-tetrahydro-4H-1,4-benzodiazepin-4-yl]-9H-purin-2-amine] | < 50% | 50 to 79% |
| Nc1nc(N2CCN(Cc3ccc(F)cc3)c3ccccc3C2)c2nc[nH]c2n1 [Compound 15, 6-[1-(4-fluorobenzyl)-1,2,3,5-tetrahydro-4H-1,4-benzodiazepin-4-yl]-9H-purin-2-amine] | < 50% | 50 to 79% |
| CC(C)c1ccc(CN2CCN(c3nc(N)nc4[nH]cnc34)Cc3ccccc32)cc1 [Compound 3, 6-[1-(4-isopropylbenzyl)-1,2,3,5-tetrahydro-4H-1,4-benzodiazepin-4-yl]-9H-purin-2-amine] | < 50% | < 50% |
| COc1ccccc1CN1CCN(c2nc(N)nc3[nH]cnc23)Cc2ccccc21 [Compound 9, 6-[1-(2-methoxybenzyl)-1,2,3,5-tetrahydro-4H-1,4-benzodiazepin-4-yl]-9H-purin-2-amine] | < 50% | 50 to 79% |
| Cc1ccc(CCCN2CCN(c3nc(N)nc4[nH]cnc34)Cc3ccccc32)cc1 [Compound 44, 6-{1-[3-(4-methylphenyl)propyl]-1,2,3,5-tetrahydro-4H-1,4-benzodiazepin-4-yl}-9H-purin-2-amine] | < 50% | < 50% |
| CC(C)(C)c1ccc(CN2CCN(c3nc(N)nc4[nH]cnc34)Cc3ccccc32)cc1 [Compound 29, 6-[1-(4-tert-butylbenzyl)-1,2,3,5-tetrahydro-4H-1,4-benzodiazepin-4-yl]-9H-purin-2-amine] | 50 to 79% | < 50% |

Now from value to compound:

| inhibition at 30 µM (EphA8) | inhibition at 30 µM (RET kinase) | Compound |
| --- | --- | --- |
| < 50% | 50 to 79% | Nc1nc(N2CCN(Cc3ccc(F)c(F)c3)c3ccccc3C2)c2cn[nH]c2n1 [Compound 47, 4-[1-(3,4-difluorobenzyl)-1,2,3,5-tetrahydro-4H-1,4-benzodiazepin-4-yl]-1H-pyrazolo[3,4-d]pyrimidin-6-amine] |
| < 50% | < 50% | COc1ccc(OC)c(CN2CCN(c3nc(N)nc4[nH]ncc34)Cc3ccccc32)c1 [Compound 36, 4-[1-(2,5-dimethoxybenzyl)-1,2,3,5-tetrahydro-4H-1,4-benzodiazepin-4-yl]-1H-pyrazolo[3,4-d]pyrimidin-6-amine] |
| < 50% | < 50% | Nc1nc(N2CCN(Cc3cccc(Cl)c3)c3ccccc3C2)c2cn[nH]c2n1 [Compound 25, 4-[1-(3-chlorobenzyl)-1,2,3,5-tetrahydro-4H-1,4-benzodiazepin-4-yl]-1H-pyrazolo[3,4-d]pyrimidin-6-amine] |
| < 50% | < 50% | Nc1nc(N2CCN(CCCc3ccccc3)c3ccccc3C2)c2cn[nH]c2n1 [Compound 41, 4-[1-(3-phenylpropyl)-1,2,3,5-tetrahydro-4H-1,4-benzodiazepin-4-yl]-1H-pyrazolo[3,4-d]pyrimidin-6-amine] |
| 50 to 79% | < 50% | Nc1nc(N2CCN(Cc3ccc(F)cc3)c3ccccc3C2)c2cn[nH]c2n1 [Compound 16, 4-[1-(4-fluorobenzyl)-1,2,3,5-tetrahydro-4H-1,4-benzodiazepin-4-yl]-1H-pyrazolo[3,4-d]pyrimidin-6-amine] |
| < 50% | < 50% | COc1ccccc1CN1CCN(c2nc(N)nc3[nH]ncc23)Cc2ccccc21 [Compound 10, 4-[1-(2-methoxybenzyl)-1,2,3,5-tetrahydro-4H-1,4-benzodiazepin-4-yl]-1H-pyrazolo[3,4-d]pyrimidin-6-amine] |
| < 50% | 50 to 79% | Nc1nc(N2CCN(Cc3ccc(F)c(F)c3)c3ccccc3C2)c2nc[nH]c2n1 [Compound 46, 6-[1-(3,4-difluorobenzyl)-1,2,3,5-tetrahydro-4H-1,4-benzodiazepin-4-yl]-9H-purin-2-amine] |
| < 50% | < 50% | Nc1nc(N2CCN(Cc3ccccc3Cl)c3ccccc3C2)c2cn[nH]c2n1 [Compound 14, 4-[1-(2-chlorobenzyl)-1,2,3,5-tetrahydro-4H-1,4-benzodiazepin-4-yl]-1H-pyrazolo[3,4-d]pyrimidin-6-amine] |
| < 50% | < 50% | COc1ccc(CN2CCN(c3nc(N)nc4[nH]ncc34)Cc3ccccc32)cc1OC [Compound 28, 4-[1-(3,4-dimethoxybenzyl)-1,2,3,5-tetrahydro-4H-1,4-benzodiazepin-4-yl]-1H-pyrazolo[3,4-d]pyrimidin-6-amine] |
| < 50% | < 50% | Cc1cccc(CN2CCN(c3nc(N)nc4[nH]ncc34)Cc3ccccc32)c1 [Compound 34, 4-[1-(3-methylbenzyl)-1,2,3,5-tetrahydro-4H-1,4-benzodiazepin-4-yl]-1H-pyrazolo[3,4-d]pyrimidin-6-amine] |
| < 50% | < 50% | Nc1nc(N2CCN(Cc3ccc(Cl)c(Cl)c3)c3ccccc3C2)c2nc[nH]c2n1 [Compound 42, 6-[1-(3,4-dichlorobenzyl)-1,2,3,5-tetrahydro-4H-1,4-benzodiazepin-4-yl]-9H-purin-2-amine] |
| < 50% | < 50% | Nc1nc(N2CCN(Cc3ccc(Cl)cc3Cl)c3ccccc3C2)c2cn[nH]c2n1 [Compound 32, 4-[1-(2,4-dichlorobenzyl)-1,2,3,5-tetrahydro-4H-1,4-benzodiazepin-4-yl]-1H-pyrazolo[3,4-d]pyrimidin-6-amine] |
